# Assay results published in patent publication US20260216174A1, “TREATMENT OF ER+ BREAST CANCER COMPRISING HOMOLOGOUS RECOMBINATION DEFICIENCY USING PARG INHIBITOR” (IDEAYA BIOSCIENCES, INC., priority 2023, published 2026).
# Legend:
# HCC1428 tumors = test: Cell line derived xenograft (CDX) study with HCC1428 tumors; assay type: in vivo, BALB/c nude mice
# Method: For this xenograft, supplemental estradiol benzoate injections (40 μg/20 μl/mouse) are administered subcutaneously twice a week to BALB/c nude mice, starting one week prior to cell implantation and continuing through to the end of study. After implantation, HCC1428 tumor were allocated to treatment arms once a median tumor volume of about 181 mm^3 was reached. In Table 3A the abbreviation “p.o.” refers to oral administration and the abbreviation “QD×28” refers to administration once a day for 28 days.
# Tumors were measured and mice were weighed twice a week during the experimental period. The tumor volume (mm3) was estimated using the formula: TV=a×b2/2, where “a” and “b” were the long and the short diameter of a tumor, respectively. The Tumor volumes were used to calculate tumor growth inhibition (TGI, an indicator of antitumor activity) using the formula: TGI %: (1−{T/T0/Ct/C0}/1−{C0/Ct})×100 where Tt=median tumor volume of treated at time t, T0=median tumor volume of treated at time 0, Ct=median tumor volume of control at time t and C0=median tumor volume of control at time 0.
# For this xenograft, supplemental estradiol benzoate injections (40 μg/20 μl/mouse) are administered subcutaneously twice a week to BALB/c nude mice, starting one week prior to cell implantation and continuing through to the end of study. After implantation, HCC1428 tumor were allocated to treatment arms once a median tumor volume of about 181 mm^3 was reached. In Table 4A the abbreviation “p.o.” refers to oral administration and the abbreviation “QD×28” refers to administration once a day for 28 days.
# Tumors were measured and mice were weighed twice a week during the experimental period. The tumor volume (mm^3) was estimated using the formula: TV=a×b2/2, where “a” and “b” were the long and the short diameter of a tumor, respectively. The Tumor volumes were used to calculate tumor growth inhibition (TGI, an indicator of antitumor activity) using the formula: TGI %: (1−{T/T0/Ct/C0}/1−{C0/Ct})×100 where Tt=median tumor volume of treated at time t, T0=median tumor volume of treated at time 0, Ct=median tumor volume of control at time t and C0=median tumor volume of control at time 0. […] At 100 mg/kg QD the mean tumor volume achieved was 116 mm3, on Day 71. The tumor growth inhibition (TGI) of these treatments compared with vehicle group on Day 28 or 71 of the treatment is summarized in Table 4B (See FIG. 3).
# HBCx-22 tumor = test: Patient-derived xenograft (PDX) study with HBCx-22; assay type: in vivo, Athymic Nude-Foxn1^nu mice; conditions: HBCx-22 PDX; for Regressions (%) / TGI (%) D42: Day 42
# Method: Female Athymic Nude-Foxn1^nu mice with an established growing HBCx-22 tumor between 108 and 288 mm^3 were randomized into 4 treatment groups of 10 mice each, according to the groups listed in Table 5A, tumor-bearing mice receive estrogen diluted in drinking water (β-estradiol, 8.5 mg/l), from the date of tumor implant to the end of the study. In Table 5A, the abbreviation “p.o.” refers to oral administration, the abbreviation “QD” refers to administration once a day, and the abbreviation “BID” refers to administration twice a day.
# Tumors were measured and mice were weighed twice per week during the experimental period. The tumor volume (mm^3) was estimated using the formula: tumor volume (TV)=a×b2/2, where “a” and “b” were the long and the short diameter of a tumor, respectively. The TVs were used to calculate tumor growth inhibition (TGI, an indicator of antitumor activity) using the formula TGI %: (1−{T/T0/Ct/C0}/1−{C0/Ct})×100 where Tt=median tumor volume of treated at time t, T0=median tumor volume of treated at time 0, Ct=median tumor volume of control at time t and C0=median tumor volume of control at time 0. […] Tumor regression represents tumor volume less than the initial tumor volume on D0.
# Female Athymic Nude-Foxn1^nu mice with an established growing HBCx-22 tumor between 108 and 288 mm^3 were randomized into 5 treatment groups of 8 mice each, according to the groups listed in Table 6A, tumor-bearing mice receive estrogen diluted in drinking water (β-estradiol, 8.5 mg/l), from the date of tumor implant to the end of the study. In Table 6A, the abbreviation “p.o.” refers to oral administration, the abbreviation “QD” refers to administration once a day, and the abbreviation “BID” refers to administration twice a day.
# Tumors were measured and mice were weighed twice per week during the experimental period. The tumor volume (mm^3) was estimated using the formula: tumor volume (TV)=a×b2/2, where “a” and “b” were the long and the short diameter of a tumor, respectively. The TVs were used to calculate tumor growth inhibition (TGI, an indicator of antitumor activity) using the formula TGI %: (1−{T/T0/Ct/C0}/1−{C0/Ct})×100 where Tt=median tumor volume of treated at time t, T0=median tumor volume of treated at time 0, Ct=median tumor volume of control at time t and C0=median tumor volume of control at time 0. […] Robust and statistically significant tumor growth inhibition was observed starting at a dose of 30 mpk with 4/8 as shown in Table 6B. Tumor regression represents tumor volume less than the initial tumor volume at DO.
# [1] = 30 mg/kg p.o. QD × 28, Day 28, vs vehicle
# [2] = Compound A study, 30 mg/kg QD p.o.
# [3] = Compound A study, 100 mg/kg QD p.o.
structure (smiles),measurement,setting,value
CC(C)C(=O)N1CCN(c2cc(S(=O)(=O)NC3(C#N)CC3)cc3c2cnn3-c2nnc(C(F)F)s2)C[C@H]1C [Compound B],TGI (%) D28,HCC1428 tumors; [1],81.7%
same,TGI (%) D28,"HCC1428 tumors; 100 mg/kg p.o. QD × 28, Day 28, vs vehicle",89.0%
same,TGI (%) D28,"HCC1428 tumors; 300 mg/kg p.o. QD × 28, Day 28, vs vehicle",94.6%
same,mean tumor volume,"HCC1428 tumors; Compound B study, 30 mg/kg QD, Day 28",165 mm^3
same,mean tumor volume,"HCC1428 tumors; Compound B study, 100 mg/kg QD, Day 28",103 mm^3
same,mean tumor volume,"HCC1428 tumors; Compound B study, 300 mg/kg QD, Day 28",50 mm^3
same,Regressions (%),HBCx-22 tumor; 30 mg/kg QD p.o.,10%
same,TGI (%) D42,HBCx-22 tumor; 30 mg/kg QD p.o.,58.6%
same,partial regressions (mice),HBCx-22 tumor; 30 mg/kg once daily,1/10
same,tumor stabilization,HBCx-22 tumor; 30 mg/kg once daily,tumor stabilization for all mice
same,TGI (%) D42,HBCx-22 tumor; 100 mg/kg BID p.o. (200 mg/kg/day),110.4%
same,Regressions (%),HBCx-22 tumor; 100 mg/kg BID p.o.,60%
same,Regressions (%),HBCx-22 tumor; 100 mg/kg QD p.o.,30%
same,TGI (%) D42,HBCx-22 tumor; 100 mg/kg QD p.o.,97.3%
same,partial tumor regression (mice),HBCx-22 tumor; 100 mg/kg once daily,3/10
same,partial tumor regression (mice),HBCx-22 tumor; 100 mg/kg twice daily (200 mg/kg/day),6/10
"C[C@H]1CN(c2cc(S(=O)(=O)NC3(C)CC3)cc3c2cnn3-c2nnc(C(F)F)s2)C[C@H](C)N1 [Compound A, 1-(5-(difluoromethyl)-1,3,4-thiadiazol-2-yl)-4-((3S,5S)-3,5-dimethylpiperazin-1-yl)-N-(1-methylcyclopropyl)-1H-indazole-6-sulfonamide]",TGI (%) D28 or 71,"HCC1428 tumors; 3 mg/kg p.o. QD × 28, Day 28, vs vehicle",23%
same,TGI (%) D28 or 71,HCC1428 tumors; [1],54%
same,TGI (%) D28 or 71,"HCC1428 tumors; 100 mg/kg p.o. QD × 72, Day 71, vs vehicle",103%
same,mean tumor volume,"HCC1428 tumors; Compound A study, 3 mg/kg QD, Day 28",836 mm^3
same,mean tumor volume,"HCC1428 tumors; Compound A study, 30 mg/kg QD, Day 28",570 mm^3
same,mean tumor volume,"HCC1428 tumors; Compound A study, 100 mg/kg QD, Day 71",116 mm3
same,Regressions (%),HBCx-22 tumor; 3 mg/kg QD p.o.,0%
same,TGI (%) D42,HBCx-22 tumor; 3 mg/kg QD p.o.,0.1%
same,Regressions (%),HBCx-22 tumor; 10 mg/kg QD p.o.,0%
same,TGI (%) D42,HBCx-22 tumor; 10 mg/kg QD p.o.,31.8%
same,Regressions (%),HBCx-22 tumor; [2],50%
same,TGI (%) D42,HBCx-22 tumor; [2],83.4%
same,Regressions (%),HBCx-22 tumor; [3],62%
same,TGI (%) D42,HBCx-22 tumor; [3],108.5%
same,tumor regression (mice),"HBCx-22 tumor; Compound A study, 30 mpk",4/8
